Reference: ChEMBL document CHEMBL5247609, “Novel nitric oxide-releasing derivatives of pyranocarbazole as antitumor agents: Design, synthesis, biological evaluation, and nitric oxide release studies” (Eur J Med Chem, 2022)
Activity calls are given as the source filed them. No cut-off for these calls is given here.

Columns and labels:
MDA-MB-231 [1] = experiment: Induction of apoptosis in human MDA-MB-231 cells assessed as late apoptotic cells measured at 2 uM after 48 hrs by FITC-Annexin-V and propidium iodide based flow cytometric analysis (reference value: 2.68%); type: functional
MDA-MB-231 [2] = experiment: Induction of apoptosis in human MDA-MB-231 cells assessed as downregulation of Bcl-2 by Western blotting analysis; type: functional, cell-based; conditions: dose 0.5-2 µM
MX1 [3] = experiment: Induction of apoptosis in human MX1 cells assessed as necrotic cells measured at 2 uM after 48 hrs by FITC-Annexin-V and propidium iodide based flow cytometric analysis (reference value: 0.055 %); type: functional
MDA-MB-231 [4] = experiment: Antiproliferative activity against human MDA-MB-231 cells assessed as reduction in cell viability after 96 hrs by MTT assay; type: functional, cell-based; conditions: MDA-MB-231, 96 h
MX1 [5] = experiment: Induction of cell cycle arrest in human MX1 cells assessed as increase in CDK6 expression at 0.5 to 2 uM by Western blotting analysis; type: functional, cell-based; conditions: dose 0.5-2 µM, time 24.0 hrs
MX1 [6] = experiment: Induction of morphological changes in human MX1 cells assessed as decrease in cell number at 0.5 to 2 uM measured after 24 hrs by bright field inverted microscopic analysis; type: functional, cell-based; conditions: dose 0.5-2 µM
MX1 [7] = experiment: Induction of cell cycle arrest in human MX1 cells assessed as accumulation of cells at G0/G1 phase at 0.5 to 2 uM measured after 24 hrs by propidium iodide staining based FACS calibur flow cytometeric analysis (reference value: 39.2%); type: functional; conditions: dose 0.5-2 µM
MX1 [8] = experiment: Induction of apoptosis in human MX1 cells assessed as late apoptotic cells measured at 0.5 uM after 48 hrs by FITC-Annexin-V and propidium iodide based flow cytometric analysis (reference value: 5.24%); type: functional
MX1 [9] = experiment: Induction of cell cycle arrest in human MX-1 cells assessed as accumulation of cells at G0/G1 phase incubated for 24 hrs by propidium iodide staining based FACS calibur flow cytometeric analysis; type: functional; conditions: dose 0.5-2 µM
MDA-MB-231 [10] = experiment: Induction of apoptosis in human MDA-MB-231 cells assessed as late apoptotic cells measured at 1 uM after 48 hrs by FITC-Annexin-V and propidium iodide based flow cytometric analysis (reference value: 2.68%); type: functional
MX1 [11] = experiment: Induction of apoptosis in human MX1 cells assessed as early apoptotic cells measured at 0.5 uM after 48 hrs by FITC-Annexin-V and propidium iodide based flow cytometric analysis (reference value: 6.30%); type: functional
MDA-MB-231 [12] = experiment: Induction of morphological changes in human MDA-MB-231 cells assessed as decrease in cell number at 0.5 to 2 uM measured after 24 hrs by bright field inverted microscopic analysis; type: functional, cell-based; conditions: dose 0.5-2 µM
MX1 [13] = experiment: Induction of apoptosis in human MX1 cells assessed as necrotic cells measured at 5 uM after 48 hrs by FITC-Annexin-V and propidium iodide based flow cytometric analysis (reference value: 0.055 %); type: functional
[14] = Toxicity in BALBC mouse xenografted with human MDA-MB-231 cells assessed as weight loss at 50 to 150 mg/kg, IG administered every 3 days for 21 days; type: organism-based; conditions: in vivo, po, 504 h, dose 50-150 mg/kg, time 21 day
MDA-MB-231 [15] = experiment: Induction of apoptosis in human MDA-MB-231 cells assessed as viable cells measured at 0.5 uM after 48 hrs by FITC-Annexin-V and propidium iodide based flow cytometric analysis (reference value: 94.4% ); type: functional; conditions: read-out: Activity
MDA-MB-231 [16] = experiment: Antitumor activity against human MDA-MB-231 cells xenografted in BALBC mouse assessed as inhibition of tumor growth at 24 mg/kg, ip administered every 3 days for 21 days relative to control; type: functional; conditions: MDA-MB-231, 504 h, time 21 day, read-out: TGI
MDA-MB-231 [17] = experiment: Induction of apoptosis in human MDA-MB-231 cells assessed as viable cells measured at 2 uM after 48 hrs by FITC-Annexin-V and propidium iodide based flow cytometric analysis (reference value: 94.4% ); type: functional; conditions: read-out: Activity
MX1 [18] = experiment: Induction of apoptosis in human MX1 cells assessed as viable cells measured at 1 uM after 48 hrs by FITC-Annexin-V and propidium iodide based flow cytometric analysis (reference value: 88.4%); type: functional; conditions: read-out: Activity
MDA-MB-231 [19] = experiment: Induction of apoptosis in human MDA-MB-231 cells assessed as late apoptotic cells measured at 5 uM after 48 hrs by FITC-Annexin-V and propidium iodide based flow cytometric analysis (reference value: 2.68%); type: functional
MX1 [20] = experiment: Induction of apoptosis in human MX1 cells assessed as early apoptotic cells measured at 1 uM after 48 hrs by FITC-Annexin-V and propidium iodide based flow cytometric analysis (reference value: 6.30%); type: functional
MX1 [21] = experiment: Induction of apoptosis in human MX1 cells assessed as total apoptotic cells measured at 5 uM after 48 hrs by FITC-Annexin-V and propidium iodide based flow cytometric analysis (reference value: 16.36%); type: functional
NCI-H460 = experiment: Antiproliferative activity against human H460 cells assessed as reduction in cell viability after 96 hrs by MTT assay; type: functional, cell-based; conditions: NCI-H460, 96 h
MDA-MB-231 [22] = experiment: Induction of apoptosis in human MDA-MB-231 cells assessed as late apoptotic cells measured at 0.5 uM after 48 hrs by FITC-Annexin-V and propidium iodide based flow cytometric analysis (reference value: 2.68%); type: functional
MDA-MB-231 [23] = experiment: Inhibition of PI3K/Akt signaling in human MDA-MB-231 cells assessed as decrease in phosphorylated Akt expression level incubated for 24 hrs by Western blotting analysis; type: cell-based; conditions: dose 0.5-5 µM
MDA-MB-231 [24] = experiment: Inhibition of PI3K/Akt signaling in human MDA-MB-231 cells assessed as decrease in phosphorylated S6 expression incubated for 24 hrs by Western blotting analysis; type: cell-based; conditions: dose 0.5-2 µM
MDA-MB-231 [25] = experiment: Induction of apoptosis in human MDA-MB-231 cells assessed as viable cells measured at 1 uM after 48 hrs by FITC-Annexin-V and propidium iodide based flow cytometric analysis (reference value: 94.4% ); type: functional; conditions: read-out: Activity
MX1 [26] = experiment: Induction of apoptosis in human MX1 cells assessed as late apoptotic cells measured at 5 uM after 48 hrs by FITC-Annexin-V and propidium iodide based flow cytometric analysis (reference value: 5.24%); type: functional
MX1 [27] = experiment: Induction of apoptosis in human MX1 cells assessed as late apoptotic cells measured at 1 uM after 48 hrs by FITC-Annexin-V and propidium iodide based flow cytometric analysis (reference value: 5.24%); type: functional
HeLa = experiment: Antiproliferative activity against human HeLa cells assessed as reduction in cell viability after 96 hrs by MTT assay; type: functional, cell-based
MDA-MB-231 [28] = experiment: Induction of apoptosis in human MDA-MB-231 cells assessed as necrotic cells measured at 2 uM after 48 hrs by FITC-Annexin-V and propidium iodide based flow cytometric analysis (reference value: 0.253 %); type: functional
MDA-MB-231 [29] = experiment: Induction of apoptosis in human MDA-MB-231 cells assessed as upregulation of Bax by Western blotting analysis; type: functional, cell-based; conditions: dose 0.5-2 µM
[30] = Toxicity in BALBC mouse allografted with mouse EMT6 cells assessed as weight loss at 50 to 150 mg/kg, IG administered every 3 days for 21 days; type: organism-based; conditions: in vivo, po, 504 h, dose 50-150 mg/kg, time 21 day
MX1 [31] = experiment: Induction of morphological changes in human MX1 cells assessed as decrease in cell size at 0.5 to 2 uM measured after 24 hrs by bright field inverted microscopic analysis; type: functional, cell-based; conditions: dose 0.5-2 µM

CC1(C)C=Cc2c(c(/C=C/C(=O)NCCOc3no[n+]([O-])c3S(=O)(=O)c3ccccc3)cc3c2[nH]c2ccc(C(C)(C)C)cc23)O1
Activity (MDA-MB-231 [1]): 12.8% | Activity (MDA-MB-231 [2]): Dose-Dependent Effect | Activity (MX1 [3]): 0.043% | IC50 (MDA-MB-231 [4]): 50 nM | Activity (MX1 [5]): Active | Activity (MX1 [6]): Active | Activity (MX1 [7]): 43.1% | Activity (MX1 [8]): 5.2% | Activity (MX1 [9]): Dose-Dependent Effect | Activity (MDA-MB-231 [10]): 4.85% | Activity (MX1 [11]): 39.8% | Activity (MDA-MB-231 [12]): Active | Activity (MX1 [13]): 0.276% | Activity [14]: Non-Toxic | viability at 0.5 µM (MDA-MB-231 [15]): 92.4% | inhibition in vivo at 24 mg/kg (MDA-MB-231 [16]): 84.3% | viability at 2 µM (MDA-MB-231 [17]): 75.9% | viability at 1 µM (MX1 [18]): 43.5% | Activity (MDA-MB-231 [19]): 20.8% | Activity (MX1 [20]): 48.2% | Activity (MX1 [21]): 87.2% | IC50 (NCI-H460): 780 nM | Activity (MDA-MB-231 [22]): 3.85% | inhibition (MDA-MB-231 [23]): Dose-Dependent Effect | inhibition (MDA-MB-231 [24]): Active | viability at 1 µM (MDA-MB-231 [25]): 91.2% | Activity (MX1 [26]): 14.5% | Activity (MX1 [27]): 8.1% | IC50 (HeLa): 140 nM | Activity (MDA-MB-231 [28]): 0.535% | Activity (MDA-MB-231 [29]): Dose-Dependent Effect | Activity [30]: Non-Toxic | Activity (MX1 [31]): Active
